The source of these data is US9732094B2, “Arylquinazolines” (Merck Patent GmbH, priority 2013, dated 2017).

SMILES strings stand for the structures. Like-named read-outs stand apart in the source and are kept apart here.

Data set [1] addresses Kv11.1 (hERG) (Homo sapiens (Human), UniProt Q12809). The data set can be described thus: Kv11.1 (hERG) ion channel activity (patch clamp assay), HEK293 cells transfected with hERG gene. On the technique in general: Block of hERG is tested as a sign of cardiac risk.
Data set [2] has as its target DNA-PK phosphorylation at serine 2056 (Homo sapiens (Human), UniProt P78527). As to the kind of experiment: DNA-PK phosphorylation at serine 2056 (cellular), bleomycin-treated HCT116 cells, ELISA. The format is cell-based. To be noted: read-out: IC50 pDNA-PK. A digest of the protocol: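 HCT116 cells grown overnight were co-treated with 10 μM bleomycin and test compound for 6 h at 37 °C. Phospho-DNA-PK was quantified by chemiluminescent ELISA and normalised to total DNA-PKcs signal, with DMSO control as blank.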
Background: ELISA stands for enzyme-linked immunosorbent assay.

In data set [3] the target is DNA-PK (Homo sapiens (Human), UniProt P78527). As to the kind of experiment: DNA-PK assay (biochemical), flashplate 33P-ATP kinase assay. In a few lines: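 Reactions ran in streptavidin-coated flashplates and were halted by 200 mM EDTA, with a further 30 min at room temperature before saline washing.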
Setting [4] is: read-out: Ki [Kv1.11 hERG], hERG patch clamp assay (cells without asterisk).
[5] abbreviates: cellular DNA-PK phosphorylation at serine 2056, HCT116.
[6] abbreviates: read-out: Ki [Kv1.11 hERG], patch clamp, HEK293 transfected with hERG gene.
Where [7] appears, read: cellular, HCT116 cells, 10 μM bleomycin, six hours.
Where [8] appears, read: Ki [Kv1.11 hERG], hERG patch clamp assay (cells without asterisk).
Where [9] appears, read: Ki [Kv1.11 hERG], patch clamp, HEK293 transfected with hERG gene.

Sequence of Kv11.1 (hERG) (Q12809 whole entry): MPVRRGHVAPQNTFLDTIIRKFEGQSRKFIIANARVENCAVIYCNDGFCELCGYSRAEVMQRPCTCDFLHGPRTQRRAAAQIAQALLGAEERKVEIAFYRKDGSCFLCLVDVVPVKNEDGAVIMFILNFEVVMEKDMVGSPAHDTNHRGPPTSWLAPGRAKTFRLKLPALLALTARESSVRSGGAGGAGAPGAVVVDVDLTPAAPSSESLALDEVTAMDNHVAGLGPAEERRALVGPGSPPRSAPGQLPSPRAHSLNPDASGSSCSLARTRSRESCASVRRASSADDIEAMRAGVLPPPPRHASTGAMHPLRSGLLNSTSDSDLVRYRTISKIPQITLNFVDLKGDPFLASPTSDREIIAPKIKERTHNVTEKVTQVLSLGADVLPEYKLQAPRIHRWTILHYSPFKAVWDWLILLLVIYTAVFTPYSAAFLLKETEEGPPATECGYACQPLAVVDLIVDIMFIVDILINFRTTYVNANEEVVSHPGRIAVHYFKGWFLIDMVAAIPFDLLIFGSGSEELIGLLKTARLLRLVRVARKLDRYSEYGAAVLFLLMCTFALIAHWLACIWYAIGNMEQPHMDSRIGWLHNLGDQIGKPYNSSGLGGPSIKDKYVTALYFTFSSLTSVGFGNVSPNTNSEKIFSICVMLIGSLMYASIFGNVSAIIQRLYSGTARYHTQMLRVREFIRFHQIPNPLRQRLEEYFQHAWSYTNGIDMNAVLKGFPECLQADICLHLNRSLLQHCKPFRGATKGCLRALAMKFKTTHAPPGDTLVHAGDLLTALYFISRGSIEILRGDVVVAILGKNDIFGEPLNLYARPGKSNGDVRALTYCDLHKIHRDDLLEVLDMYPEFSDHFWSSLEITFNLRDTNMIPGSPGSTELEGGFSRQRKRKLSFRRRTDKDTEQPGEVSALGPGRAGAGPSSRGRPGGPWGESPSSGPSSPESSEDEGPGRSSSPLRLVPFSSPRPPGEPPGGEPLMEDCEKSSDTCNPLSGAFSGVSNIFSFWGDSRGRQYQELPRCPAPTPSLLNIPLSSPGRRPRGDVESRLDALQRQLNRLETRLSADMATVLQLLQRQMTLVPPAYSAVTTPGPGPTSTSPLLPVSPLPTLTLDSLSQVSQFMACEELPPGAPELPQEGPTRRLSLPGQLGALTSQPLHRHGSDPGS

By Ki is commonly meant a dissociation constant, usually derived from enzyme kinetics or from competition with a known ligand. For orientation: IC50 means the concentration needed to halve the response being measured. With `Cc1cnc(C(O)c2ccc(F)c(-c3ncnc4cc(N5CCOCC5)ccc34)c2)c(C)n1` (stereo not drawn) [Example 354, (3,5-Dimethyl-pyrazin-2-yl)-[4-fluoro-3-(7-morpholin-4-yl-quinazolin-4-yl)-phenyl]methanol], in data set [1] (setting [4]), the inhibitory constant (Ki) is > 25 µM. Also, the 50% inhibitory concentration (IC50) in data set [2] (setting [5]) was < 0.5 µM; in data set [3] (biochemical DNA-PK assay) it was < 0.003 µM.

As for `OCCOc1ccc(C(O)c2cc(-c3ncnc4cc(N5CCOCC5)ccc34)c(F)cc2Cl)nn1` (stereo not drawn) [Example 116, 2-(6-{[2-Chloro-4-fluoro-5-(7-morpholin-4-yl-quinazolin-4-yl)-phenyl]hydroxy-methyl}pyridazin-3-yl-oxy)ethanol], the Ki in data set [1] (setting [6]) was > 25 µM. For the same compound, the IC50 in data set [2] (setting [7]) is 0.5 to 5 µM; in data set [3] (enzymatic, 5 μM ATP) it was < 0.003 µM.

Turning to `O=c1[nH]nc(C(O)c2ccc(F)c(-c3ncnc4cc(N5CCOCC5)ccc34)c2)c2ccsc12` (stereo not drawn) [Example 338, 4-[[4-Fluoro-3-(7-morpholino-quinazolin-4-yl)-phenyl]hydroxy-methyl]-6H-thieno[2,3-d}-pyridazin-7-one], the Ki in data set [1] (setting [4]) was > 25 µM. In addition, the IC50 was 0.5 to 5 µM in data set [2] (setting [5]) and < 0.003 µM in data set [3] (biochemical DNA-PK assay).

For `Cn1nc(C(C(N)=O)c2cc(-c3ncnc4cc(N5CCOCC5)ccc34)c(F)cc2Cl)ccc1=O` (stereo not drawn) [Example 311, 2-[2-Chloro-4-fluoro-5-(7-morpholin-4-yl-quinazolin-4-yl)-phenyl]-2-(1-methyl-6-oxo-1,6-dihydro-pyridazin-3-yl)-acetamide], the inhibition constant Ki in data set [1] (setting [4]) was > 25 µM. For the same compound, the IC50 in data set [2] (setting [5]) is 10 to 30 µM; in data set [3] (biochemical DNA-PK assay), > 0.03 µM.

`COc1nccnc1C(O)c1cc(-c2ncnc3cc(N4CCOCC4)ccc23)c(F)cc1Cl` (stereo not drawn) [Example 468, [2-Chloro-4-fluoro-5-(7-morpholin-4-yl-quinazolin-4-yl)-phenyl]-(3-methoxy-pyrazin-2-yl)-methanol] returned an inhibition constant (Ki) in data set [1] (setting [8]) of 15 to 25 µM. The IC50 was < 0.5 µM in data set [2] (setting [5]) and < 0.003 µM in data set [3] (biochemical DNA-PK assay).

In data set [1] (setting [9]), `Cc1cc(F)c(-c2ncnc3cc(N4CCOCC4)ccc23)cc1C(O)c1nccs1` (stereo not drawn) [Example 207, [4-Fluoro-2-methyl-5-(7-morpholinylquinazolin-4-yl)phenyl]thiazol-2-ylmethanol] came in with a Ki of 15 to 25 µM. Besides, the IC50 was 0.5 to 5 µM in data set [2] (setting [7]) and < 0.003 µM in data set [3] (enzymatic, 5 μM ATP).

Take `OC(c1cnc(F)c(-c2ncnc3cc(N4CCOCC4)ccc23)c1)c1nccs1` (stereo not drawn) [Example 189, [6-Fluoro-5-(7-morpholin-4-yl-quinazolin-4-yl)-pyridin-3-yl]thiazol-2-ylmethanol]: the Ki in data set [1] (Ki [Kv1.11 hERG], Table 5) lay in the range of 15 to 25 µM. Further, the IC50 in data set [2] (Table 5, HCT116 cells) was 0.5 to 5 µM; in data set [3] (Table 5) it was 0.003 to 0.007 µM.

`OC(c1cc(-c2ncnc3cc(N4CCOCC4)ccc23)c(F)cc1F)c1ncnc2ccsc12` (stereo not drawn) [Example 439, [2,4-Difluoro-5-(7-morpholin-4-yl-quinazolin-4-yl)-phenyl]thieno[3,2-d}-pyrimidin-4-yl-methanol]: the Ki in data set [1] (setting [8]) was in the range of 10 to 15 µM. The IC50 in data set [2] (setting [5]) was < 0.5 µM; in data set [3] (biochemical DNA-PK assay), < 0.003 µM.

Consider `NC(=O)C(c1ccc(F)c(-c2ncnc3cc(N4CCOCC4)ccc23)c1)c1ncnn2cccc12` (stereo not drawn) [Example 299, 2-[4-Fluoro-3-(7-morpholin-4-yl-quinazolin-4-yl)-phenyl]-2-pyrrolo-[2,1-f][1,2,4]triazin-4-ylacetamide], for which, in data set [1] (setting [4]), the Ki is < 10 µM. The IC50 is 10 to 30 µM in data set [2] (setting [5]) and 0.007 to 0.03 µM in data set [3] (biochemical DNA-PK assay).

For `COc1cncnc1C(O)c1cc(-c2ncnc3cc(N4CCOCC4)ccc23)c(F)cc1Cl` (stereo not drawn) [Example 447, [2-Chloro-4-fluoro-5-(7-morpholin-4-yl-quinazolin-4-yl)-phenyl]-(5-methoxy-pyrimidin-4-yl)-methanol], the inhibition constant (Ki) in data set [1] (setting [8]) fell in the range of 10 to 15 µM. Further, the concentration for half-maximal inhibition (IC50) in data set [2] (setting [5]) was 0.5 to 5 µM; in data set [3] (biochemical DNA-PK assay), < 0.003 µM.

Take `Cc1cncc(C(O)c2ccc(F)c(-c3ncnc4cc(N5CCOCC5)ccc34)c2)n1` (stereo not drawn) [Example 296, [4-Floro-3-(7-morpholin-4-yl-quinazolin-4-yl)-phenyl]-(6-methyl-pyrazin-2-yl)-methanol]: the Ki in data set [1] (setting [4]) is > 25 µM. In addition, the IC50 in data set [2] (setting [5]) was 5 to 10 µM; in data set [3] (biochemical DNA-PK assay), 0.007 to 0.03 µM.

As for `COc1ccc(C(O)c2cc(-c3ncnc4cc(N5CCOCC5)cnc34)c(F)cc2Cl)nn1` (stereo not drawn) [Example 228, [2-Chloro-4-fluoro-5-(7-morpholin-4-yl-pyrido[3,2-d}-pyrimidin-4-yl)-phenyl]-(6-methoxy-pyridazin-3-yl)-methanol], the Ki in data set [1] (setting [4]) is > 25 µM. The half-maximal inhibitory concentration (IC50) is 10 to 30 µM in data set [2] (setting [5]) and > 0.03 µM in data set [3] (biochemical DNA-PK assay).

Compound `Cn1ncc2c(C(O)c3cc(-c4ncnc5cc(N6CCOCC6)ccc45)c(F)cc3Cl)ncnc21` (stereo not drawn) [Example 402, [2-Chloro-4-fluoro-5-(7-morpholin-4-yl-quinazolin-4-yl)-phenyl]-(1-methyl-1H-pyrazolo[3,4-d}-pyrimidin-4-yl)-methanol] yielded a Ki in data set [1] (setting [8]) of 15 to 25 µM. In addition, the figures for the half-maximal inhibitory concentration (IC50) in data set [2] (setting [5]) and in data set [3] (biochemical DNA-PK assay) were 0.5 to 5 µM and 0.003 to 0.007 µM, respectively.

As to `OC(c1cc(-c2ncnc3cc(N4CCOCC4)ccc23)c(F)cc1Cl)c1ncnc2ccoc12` (stereo not drawn) [Example 440, [2-Chloro-4-fluoro-5-(7-morpholin-4-yl-quinazolin-4-yl)-phenyl]furo[3,2-d}-pyrimidin-4-yl-methanol], in data set [1] (setting [8]), the Ki was 15 to 25 µM. For the same compound, the IC50 in data set [2] (setting [5]) is < 0.5 µM; in data set [3] (biochemical DNA-PK assay) it was < 0.003 µM.

In the case of `OC(c1ccc(F)c(-c2ncnc3cc(N4CCOCC4)ccc23)c1)c1ncccc1OC(F)F` (stereo not drawn) [Example 81, (3-Difluoromethoxy-pyridin-2-yl)-[4-fluoro-3-(7-morpholin-4-yl-quinazolin-4-yl)-phenyl]methanol], the inhibition constant Ki in data set [1] (setting [6]) was > 25 µM. Besides, the half-maximal inhibitory concentration (IC50) in data set [2] (setting [7]) was < 0.5 µM; in data set [3] (enzymatic, 5 μM ATP), < 0.003 µM.

`OC(c1cc(-c2ncnc3cc(N4CCOCC4)ccc23)c(F)cc1F)c1ncnc2c1CCNC2` (stereo not drawn) [Example 387, [2,4-Difluoro-5-(7-morpholin-4-yl-quinazolin-4-yl)-phenyl]-(5,6,7,8-tetrahydropyrido-[3,4-d}pyrimidin-4-yl)-methanol] returned a Ki in data set [1] (setting [8]) of 15 to 25 µM. Besides, the values for the IC50 in data set [2] (setting [5]) and in data set [3] (biochemical DNA-PK assay) were 0.5 to 5 µM and 0.007 to 0.03 µM, respectively.

Regarding `Cc1nccnc1/C(C(=O)O)=C1/C=CC(=O)C(c2ncnc3cc(N4CCOCC4)ccc23)=C1` [Example 331, (3-methyl-pyrazin-2-yl)-[3-(7-morpholin-4-ylquinazolin-4-yl)-4-oxocyclohexa-2,5-dien-(E)-ylidene]-acetic acid], the inhibitory constant (Ki) in data set [1] (setting [4]) was > 25 µM. Besides, the half-maximal inhibitory concentration (IC50) in data set [2] (setting [5]) is 5 to 10 µM; in data set [3] (biochemical DNA-PK assay) it was 0.007 to 0.03 µM.

For the compound `OC(c1ccc(F)c(-c2ncnc3cc(N4CCOCC4)ccc23)c1)c1ncccc1Br` (stereo not drawn) [Example 478, (3-bromo-pyridin-2-yl)-[4-fluoro-3-(7-morpholin-4-yl-quinazolin-4-yl)-phenyl] methanol], the inhibitory constant (Ki) in data set [1] (setting [4]) was < 10 µM. Also, the IC50 in data set [2] (setting [5]) was < 0.5 µM; in data set [3] (biochemical DNA-PK assay), < 0.003 µM.

Take `Cc1cnc(C)c(C(O)c2cc(-c3ncnc4cc(N5CCOCC5)ccc34)c(F)cc2F)n1` (stereo not drawn) [Example 88]: the Ki in data set [1] (setting [9]) was 15 to 25 µM. Moreover, the IC50 in data set [2] (setting [7]) was < 0.5 µM; in data set [3] (enzymatic, 5 μM ATP), < 0.003 µM.

Regarding `OC(c1cc(-c2ncnc3cc(N4CCOCC4)ccc23)c(F)cc1F)c1nncc2ccoc12` (stereo not drawn) [Example 336, [2,4-Difluoro-5-(7-morpholin-4-yl-quinazolin-4-yl)-phenyl]furo[2,3-d}-pyridazin-7-yl-methanol], the inhibition constant Ki in data set [1] (setting [4]) is > 25 µM. Moreover, the 50% inhibitory concentration (IC50) in data set [2] (setting [5]) was < 0.5 µM; in data set [3] (biochemical DNA-PK assay), < 0.003 µM.
